In patent US20250195612A1, “Coversin for use in the treatment of rheumatic diseases” (Volution Immuno Pharmaceuticals SA, priority 2018, published 2025):
pKd: −log10 of the molar value.

Columns and labels:
[1] = test system: K/BxN serum-transfer arthritis in C57BL/6 mice; experiment: K/BxN serum transfer arthritis model, treatment of established disease (Example 2); format: in vivo, mouse (C57BL/6); conditions: 50 mg/kg orally once daily, day 4 to day 14
Description: The K/BxN serum-transfer arthritis (STA) model was used to test whether established arthritic disease could be ameliorated by Coversin.
(§1) Experimental RA was induced using the protocol described by. Five mice were tested in each treatment group.
(§2) On day 0 C57BL/6 mice were assessed for clinical score and paw thickness using standard protocols. All mice received an injection of K/BxN serum on day 0 and on day 2. The treatment was administered every day from day 4 to day 14. On days where serum was also injected (day 0 and day 2) drug was administered immediately after the serum injection. Clinical score and paw thickness were measured every other day.
Treatment groups were as follows: • Group 1: PBS (vehicle) • Group 2: Treatment (PAS-L Coversin 20 mg/kg subcutaneous once daily) • Group 3: Treatment (Zileuton 50 mg/kg orally once daily) • Group 4: Treatment (PAS-Coversin 20 mg/kg subcutaneous once daily)

[2] = test system: K/BxN serum-transfer arthritis in C57BL/6 mice; experiment: K/BxN serum transfer arthritis model, prophylactic (Example 1); format: in vivo, mouse (C57BL/6); conditions: 50 mg/kg orally once daily, day 0 to day 14
Description: The K/BxN serum-transfer arthritis model was used to test whether development of arthritis could be prevented by Coversin. This model is a well-known murine model in which the immunological mechanisms occurring in rheumatoid arthritis (RA) are induced by transferring serum from arthritic transgenic K/BxN mice to naive mice. In the absence of treatment arthritic symptoms occur a few days later. This model is recognised to be highly relevant for RA, especially for the preclinical screening of new therapeutic targets for RA and perhaps other forms of inflammatory arthritis.
as §1
as §2, with “2. Each” for “2. The”, “day 0” for “day 4”
Treatment groups were as follows: • Group 1: PBS (vehicle, subcutaneous, q24h) • Group 2: Treatment (Coversin 5 mg/kg subcutaneous, q12h) • Group 3: Treatment (Zileuton 50 mg/kg orally once daily) • Group 4: Treatment (PAS-Coversin 20 mg/kg subcutaneous, once daily)

[3] = target: Human BLT1; conditions: high affinity receptor; ref. [12]; cited from earlier work
[4] = test system: Human BLT2; conditions: cited from earlier work

SMILES	day of maximum clinical score [1]	development of arthritis [2]	pKd [3]	lower affinity for LTB4 than BLT1 ([4]; BLT2 compared with BLT1)	pKd ([4]; human BLT2)
CC(c1cc2ccccc2s1)N(O)C(N)=O (centres unmarked) [Zileuton, N-[1-(1-benzothien-2-yl)ethyl]-N-hydroxyurea]	6 days	partially ameliorates the development of arthritis			
CCCCC/C=C\C[C@@H](O)/C=C/C=C/C=C\[C@@H](O)CCCC(=O)O [LTB4, Leukotriene B4]			8.82 to 9.41	20 fold	7.64
